41 compounds from ChEMBL document CHEMBL3739283, “Synthesis and biological evaluation of potential small moleculeinhibitors of tumor necrosis factor” (Medchemcomm, 2015) can be followed below.

Assay [1] concerns the target T1, Tumor necrosis factor (Homo sapiens, UniProt P01375). Kind of assay: Binding affinity to human GST-tagged TNF extracellular domain expressed in Escherichia coli BL21(DE3)pLysS cells by fluorescence spectrophotometric analysis.
The target of assay [2] is T1, Tumor necrosis factor. Kind of assay: Binding affinity to recombinant human TNF assessed as inhibition of TNF-TNFR1 interaction incubated for 1 hr by ELISA.
In assay [3] the target is T1, Tumor necrosis factor. Put plainly: Inhibition of human TNF assessed as reduction in TNF-induced cell death of actinomycin D activated mouse L929 cells preincubated for 30 mins followed by cell addition measured after 18 to 24 hrs by crystal violet staining based spectrophotometric analysis.

What is called Kd is the constant that tells how readily two partners part at equilibrium. As usually defined, the IC50 is the concentration that inhibits the measured activity by half.

T1 sequence (P01375 whole entry, the tested form may be a part): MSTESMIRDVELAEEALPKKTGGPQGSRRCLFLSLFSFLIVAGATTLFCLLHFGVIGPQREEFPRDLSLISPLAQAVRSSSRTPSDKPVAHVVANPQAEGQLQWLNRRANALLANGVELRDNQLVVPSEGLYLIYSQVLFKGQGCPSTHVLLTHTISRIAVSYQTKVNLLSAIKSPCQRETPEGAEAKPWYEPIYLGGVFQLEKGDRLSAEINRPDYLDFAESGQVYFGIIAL

Take `CN(CCN(C)C(=O)c1cn(S(=O)(=O)c2cccc([N+](=O)[O-])c2)c2ccccc12)C(=O)c1coc2ccccc2c1=O`: the Kd at Tumor necrosis factor [1] (read-out: Kd) was determined as 3.16 µM. Also, at Tumor necrosis factor [2], the IC50 was 40 µM.

With `CN(CCN(C)C(=O)c1cn(S(=O)(=O)c2ccccc2)c2ccccc12)C(=O)c1coc2ccccc2c1=O`, the Kd at Tumor necrosis factor [1] (read-out: Kd) worked out at 7 µM. On Tumor necrosis factor [2], the IC50 was over 60 µM.

On to `Cc1cc2occ(C(=O)N(C)CCN(C)C(=O)c3cn(-c4cccc(C(F)(F)F)c4)c4ccccc34)c(=O)c2cc1C`, for which, on Tumor necrosis factor [1] (read-out: Kd), the dissociation constant (Kd) was found to be 2.51 µM. Further, the concentration for half-maximal inhibition (IC50) at Tumor necrosis factor [2] was over 60 µM.

As for `CN(CCN(C)C(=O)c1cn(-c2cccc(N)c2)c2ccccc12)C(=O)c1coc2ccccc2c1=O`, on Tumor necrosis factor [3], the IC50 entry is recorded as “Not Active”. Besides, at Tumor necrosis factor [1] (read-out: Kd), the Kd turned out to be 35.2 µM.

For the compound `O=C(c1cccs1)N1CCN(C(=O)c2c[nH]c3ccc([N+](=O)[O-])cc23)CC1`, the IC50 result on Tumor necrosis factor [3] was “Not Active”. Also, the Kd at Tumor necrosis factor [1] (read-out: Kd) stood at 10.7 µM.

On to `O=C(c1ccc2ccccc2c1)N1CCN(Cc2cn(-c3cccc(C(F)(F)F)c3)c3ccc([N+](=O)[O-])cc23)CC1`, for which the IC50 result on Tumor necrosis factor [3] is given as “Not Active”. Moreover, the Kd result at Tumor necrosis factor [1] is given as “Not Active”.

With `O=C(c1ccc2ccccc2c1)N1CCN(C(=O)c2cn(S(=O)(=O)c3ccccc3)c3ccccc23)CC1`, the IC50 result at Tumor necrosis factor [3] is “Not Active”. For the same compound, at Tumor necrosis factor [1], the Kd result was “Not Active”.

On to `Nc1cccc(-n2cc(C(=O)N3CCN(C(=O)C4COc5ccccc5C4=O)CC3)c3cc(N)ccc32)c1` (configuration not stated), for which the half-maximal inhibitory concentration (IC50) result on Tumor necrosis factor [3] was “Not Active”. On Tumor necrosis factor [1], the Kd result is “Not Active”.

As to `Cc1ccc2occ(CN3CCN(Cc4cn(-c5cccc(C(F)(F)F)c5)c5ccccc45)CC3)c(=O)c2c1`, the Kd on Tumor necrosis factor [1] (read-out: Kd) was 4.78 µM. In addition, the IC50 at Tumor necrosis factor [2] turned out to be 15 µM.

Take `Nc1cccc(-n2cc(C(=O)N3CCN(C(=O)c4coc5ccccc5c4=O)CC3)c3cc(N)ccc32)c1`: on Tumor necrosis factor [1] (read-out: Kd), the equilibrium dissociation constant (Kd) stood at 15.6 µM. The half-inhibitory concentration (IC50) at Tumor necrosis factor [2] amounted to 40 µM.

Turning to `CN(CCN(C)C(=O)c1cn(S(=O)(=O)c2ccccc2)c2ccccc12)C(=O)c1ccccc1`, the IC50 entry at Tumor necrosis factor [3] is “Not Active”. In addition, the Kd on Tumor necrosis factor [1] (read-out: Kd) was 17.3 µM.

With `CN(CCN(C)C(=O)c1cn(-c2cccc([N+](=O)[O-])c2)c2ccccc12)C(=O)c1coc2ccccc2c1=O`, at Tumor necrosis factor [3], the IC50 result is recorded as “Not Active”. Also, at Tumor necrosis factor [1] (read-out: Kd), the Kd stood at 12.2 µM.

For `CN(CCN(C)C(=O)c1cn(S(=O)(=O)c2cccc(N)c2)c2ccccc12)C(=O)c1coc2ccccc2c1=O`, the Kd at Tumor necrosis factor [1] (read-out: Kd) was 0.95 µM. Besides, the IC50 at Tumor necrosis factor [2] came out at 20 µM.

`O=C(NCCCCNC(=O)c1cn(S(=O)(=O)c2ccccc2)c2ccccc12)c1ccc2ccccc2c1`: on Tumor necrosis factor [3], the IC50 result is listed as “Not Active”. The Kd at Tumor necrosis factor [1] (read-out: Kd) came to 18.7 µM.

As to `O=C(c1cn(-c2cccc(C(F)(F)F)c2)c2ccccc12)N1CCN(C(=O)n2ccnc2)CC1`, on Tumor necrosis factor [3], the IC50 entry was “Not Active”. On Tumor necrosis factor [1] (read-out: Kd), the Kd is over 35 µM.

In the case of `O=C(c1coc2ccccc2c1=O)N1CCN(C(=O)c2cn(S(=O)(=O)c3cccc([N+](=O)[O-])c3)c3ccccc23)CC1`, the Kd on Tumor necrosis factor [1] (read-out: Kd) came to 16.8 µM. The IC50 on Tumor necrosis factor [2] amounted to 40 µM.

With `O=C(c1coc2ccccc2c1=O)N1CCN(Cc2cn(-c3cccc(C(F)(F)F)c3)c3ccc([N+](=O)[O-])cc23)CC1`, the IC50 result on Tumor necrosis factor [3] was “Not Active”. In addition, the Kd entry on Tumor necrosis factor [1] is given as “Not Active”.

Consider `O=C(c1ccc2ccccc2c1)N1CCN(C(=O)c2cn(-c3cccc(C(F)(F)F)c3)c3ccccc23)CC1`, for which the IC50 entry on Tumor necrosis factor [3] was “Not Active”. For the same compound, the Kd entry at Tumor necrosis factor [1] is listed as “Not Active”.

As to `O=C(c1coc2ccccc2c1=O)N1CCN(C(=O)c2cn(-c3cccc([N+](=O)[O-])c3)c3ccc([N+](=O)[O-])cc23)CC1`, the Kd on Tumor necrosis factor [1] (read-out: Kd) was 0.74 µM. Moreover, the IC50 on Tumor necrosis factor [2] turned out to be 20 µM.

With `O=C(c1ccc2ccccc2c1)N1CCN(Cc2cn(-c3cccc(C(F)(F)F)c3)c3ccccc23)CC1`, the Kd at Tumor necrosis factor [1] (read-out: Kd) was determined as 7.82 µM. For the same compound, on Tumor necrosis factor [2], the IC50 amounted to 40 µM.

`Nc1cccc(S(=O)(=O)n2cc(C(=O)N3CCN(C(=O)c4coc5ccccc5c4=O)CC3)c3ccccc32)c1`: on Tumor necrosis factor [1] (read-out: Kd), the Kd worked out at 5.45 µM. Besides, the IC50 at Tumor necrosis factor [2] was 40 µM.

`O=C(c1coc2ccccc2c1=O)N1CCN(C(=O)c2cn(-c3cccc([N+](=O)[O-])c3)c3ccccc23)CC1`: the IC50 entry at Tumor necrosis factor [3] is on record as “Not Active”. The Kd at Tumor necrosis factor [1] (read-out: Kd) stood at 25.4 µM.

On to `CN(CCN(C)C(=O)n1ccnc1)C(=O)c1cn(S(=O)(=O)c2ccccc2)c2ccccc12`, for which, on Tumor necrosis factor [3], the half-maximal inhibitory concentration (IC50) result was “Not Active”. In addition, the Kd entry at Tumor necrosis factor [1] is given as “Not Active”.

Turning to `Nc1cccc(-n2cc(C(=O)N3CCN(C(=O)c4coc5ccccc5c4=O)CC3)c3ccccc32)c1`, the Kd on Tumor necrosis factor [1] (read-out: Kd) came to 14.1 µM. The IC50 at Tumor necrosis factor [2] was found to be 20 µM.

In the case of `O=C(c1coc2ccccc2c1=O)N1CCN(C(=O)c2cn(S(=O)(=O)c3ccccc3)c3ccccc23)CC1`, at Tumor necrosis factor [1] (read-out: Kd), the Kd came to 12.8 µM. In addition, the IC50 on Tumor necrosis factor [2] amounted to 40 µM.

Turning to `O=C(NCCNC(=O)c1cn(S(=O)(=O)c2ccccc2)c2ccccc12)c1ccc2ccccc2c1`, on Tumor necrosis factor [3], the IC50 result was “Not Active”. Besides, on Tumor necrosis factor [1] (read-out: Kd), the Kd was over 35 µM.

As for `CN(CCN(C)C(=O)c1cn(-c2cccc(C(F)(F)F)c2)c2ccc([N+](=O)[O-])cc12)C(=O)c1coc2ccccc2c1=O`, the IC50 entry on Tumor necrosis factor [3] is listed as “Not Active”. Also, the Kd on Tumor necrosis factor [1] (read-out: Kd) amounted to 13.3 µM.

Turning to `Cc1cc2occ(CN3CCN(Cc4cn(-c5cccc(C(F)(F)F)c5)c5ccccc45)CC3)c(=O)c2cc1C`, the Kd at Tumor necrosis factor [1] (read-out: Kd) was 10.1 µM. For the same compound, at Tumor necrosis factor [2], the IC50 worked out at 15 µM.

`O=C(c1ccccc1F)N1CCN(C(=O)c2c[nH]c3ccc([N+](=O)[O-])cc23)CC1`: at Tumor necrosis factor [3], the IC50 result is “Not Active”. The Kd at Tumor necrosis factor [1] (read-out: Kd) amounted to 17.9 µM.

Regarding `Cc1cc2occ(C(=O)N3CCN(C(=O)c4cn(-c5cccc(C(F)(F)F)c5)c5ccccc45)CC3)c(=O)c2cc1C`, the IC50 entry on Tumor necrosis factor [3] is “Not Active”. At Tumor necrosis factor [1] (read-out: Kd), the Kd worked out at 5.12 µM.

Take `CN(CCN(C)C(=O)c1cn(S(=O)(=O)c2ccccc2)c2ccccc12)C(=O)c1ccc2ccccc2c1`: on Tumor necrosis factor [3], the IC50 entry was “Not Active”. Further, the Kd on Tumor necrosis factor [1] (read-out: Kd) was 25 µM.

On to `O=C(c1ccccc1)N1CCN(Cc2cn(-c3cccc(C(F)(F)F)c3)c3ccccc23)CC1`, for which the dissociation constant (Kd) at Tumor necrosis factor [1] (read-out: Kd) stood at 2.14 µM. In addition, the IC50 on Tumor necrosis factor [2] stood at 20 µM.

In the case of `CN(CCN(C)C(=O)c1cn(S(=O)(=O)c2ccccc2)c2ccccc12)C(=O)c1ccccc1F`, the IC50 entry at Tumor necrosis factor [3] was “Not Active”. The Kd result on Tumor necrosis factor [1] was “Not Active”.

Regarding `O=C(NCCCNC(=O)c1cn(S(=O)(=O)c2ccccc2)c2ccccc12)c1coc2ccccc2c1=O`, the Kd on Tumor necrosis factor [1] (read-out: Kd) turned out to be 5.2 µM. Moreover, the half-inhibitory concentration (IC50) on Tumor necrosis factor [2] stood at 40 µM.

Turning to `CN(CCN(C)C(=O)c1cn(S(=O)(=O)c2ccccc2)c2ccccc12)C(=O)c1cccs1`, the IC50 result on Tumor necrosis factor [3] is reported as “Not Active”. The Kd on Tumor necrosis factor [1] (read-out: Kd) worked out at 8.22 µM.

With `O=C(NCCCNC(=O)c1cn(S(=O)(=O)c2ccccc2)c2ccccc12)c1ccccc1`, the IC50 result on Tumor necrosis factor [3] is given as “Not Active”. The Kd result at Tumor necrosis factor [1] is recorded as “Not Active”.

For `O=C(c1coc2ccccc2c1=O)N1CCN(C(=O)c2cn(-c3cccc(C(F)(F)F)c3)c3ccc([N+](=O)[O-])cc23)CC1`, the IC50 result on Tumor necrosis factor [3] is “Not Active”. Also, the Kd result at Tumor necrosis factor [1] was “Not Active”.

Consider `Cc1ccc2occ(CN(C)CCN(C)Cc3cn(-c4cccc(C(F)(F)F)c4)c4ccccc34)c(=O)c2c1`, for which, at Tumor necrosis factor [1] (read-out: Kd), the equilibrium dissociation constant (Kd) is 18.6 µM. The concentration for half-maximal inhibition (IC50) at Tumor necrosis factor [2] was 10 µM.

`O=C(c1coc2ccccc2c1=O)N1CCN(Cc2cn(-c3cccc(C(F)(F)F)c3)c3ccccc23)CC1`: the equilibrium dissociation constant (Kd) on Tumor necrosis factor [1] (read-out: Kd) is 1.61 µM. Further, on Tumor necrosis factor [2], the IC50 turned out to be 20 µM.

Turning to `CN(CCN(C)C(=O)c1cn(-c2cccc(C(F)(F)F)c2)c2ccc([N+](=O)[O-])cc12)C(=O)c1ccccc1F`, the IC50 entry on Tumor necrosis factor [3] is “Not Active”. For the same compound, the Kd at Tumor necrosis factor [1] (read-out: Kd) turned out to be 10.3 µM.

`O=C(c1ccccc1)N1CCN(C(=O)c2cn(-c3cccc(C(F)(F)F)c3)c3ccccc23)CC1`: the IC50 entry at Tumor necrosis factor [3] is “Not Active”. Also, on Tumor necrosis factor [1] (read-out: Kd), the Kd amounted to 15.2 µM.
